“Also recorded” adds a separate entry of the source.
Experiments:
[1] = system: inflammatory MA (face CFA model); assay: Face Complete Freund's Adjuvant (CFA) model of inflammatory mechanical allodynia; assay type: in vivo; conditions: rat, intracisternal 5 μL at 100 μM, 30 min before CFA
Experimental: FIG. 1 illustrates the results obtained by the intracisternal application of compounds 19-24, 66-72 and 74-82. These compounds prevent face MA in a rat model of inflammatory pain (Complete Freund's Adjuvant (CFA), n=4-6 rats for each compound). For this assay, compounds (5 μL at 100 μM) or control vehicle were intra-cisternally administred 30 min before CFA injection.
Face Complete Freund's Adjuvant (CFA) Model.
CFA (Becton Dickinson) was dissolved in saline solution containing Tween 80 and paraffin oil and conserved at 4° C. For the behavioral tests, animals were briefly (<2 min) anesthetized using a mask with 2% isoflurane and received a subcutaneous injection of 25 μL of CFA (2.5 mg/kg) solution into the right vibrissa pad using a 27 Ga needle coupled to a 25 μL Hamilton syringe, as described previously. After injection, animals were awakened from anesthesia and placed in the behavioral experimental room, followed by a 120 min mechanical testing period.
Intracisternal Injection:
For investigating the effects of synthetized compounds upon mechanical allodynia, animals were briefly (<2 min) anesthetized using a mask with 2% isoflurane and received an intracisternal injection of 5 μL of compound (100 μM) or vehicle alone (saline+1% DMSO) using a 10 μL Hamilton syringe. After recovery (<2 min), rats were placed in an observation field (0.6×0.6 m square) under red light for a period test. 6-g von Frey filament was gently applied every 15 or 30 min onto the orofacial region by a first experimenter. The behavioral responses were observed and quantified by a second experimenter (see below).
Behavioral Responses to Normally Innocuous (6-g Von Frey Filament) Mechanical Stimulation.
The behavioral responses procedure was previously developed by Vos et al. 1994. A rat's response to mechanical stimulation consisted of one or more of the following elements: (1) detection, rat turn head toward stimulus; (2) withdrawal reaction, rat pull paw away or turn head away or pull it briskly backward when stimulation is applied (a withdrawal reaction is assumed to include a detection element preceding the head withdrawal and therefore consists of two responses elements); (3) escape/attack, rats avoid further contact with the stimulus, either passively by moving their bodies away from the stimulus, or actively by attacking the tip of the […]; (4) asymmetric grooming, rats display an uninterrupted series of at least three wash strokes directed to the stimulated area.
The in vivo efficacy of some compounds was evaluated on a rat model of inflammatory MA (face CFA model; Alba-Delgado et al J. Neurosci. 2018, 38, 10489-10504) (FIG. 1). After receiving a subcutaneous injection of 25 μL of CFA (2.5 mg/kg) into the right vibrissa pad, rats develop a MA that lasts days. […] In this model of inflammatory MA, MA was suppressed in compound 69 treated rats, in comparison to animals treated with vehicle (FIG. 2A).

p38α MAPK = p38α MAPK (Homo sapiens (Human), UniProt Q16539); assay: p38 alpha IC50; assay type: biochemical; conditions: p38 alpha; read-out: Mean IC50
Sequence of p38α MAPK (Q16539 whole entry): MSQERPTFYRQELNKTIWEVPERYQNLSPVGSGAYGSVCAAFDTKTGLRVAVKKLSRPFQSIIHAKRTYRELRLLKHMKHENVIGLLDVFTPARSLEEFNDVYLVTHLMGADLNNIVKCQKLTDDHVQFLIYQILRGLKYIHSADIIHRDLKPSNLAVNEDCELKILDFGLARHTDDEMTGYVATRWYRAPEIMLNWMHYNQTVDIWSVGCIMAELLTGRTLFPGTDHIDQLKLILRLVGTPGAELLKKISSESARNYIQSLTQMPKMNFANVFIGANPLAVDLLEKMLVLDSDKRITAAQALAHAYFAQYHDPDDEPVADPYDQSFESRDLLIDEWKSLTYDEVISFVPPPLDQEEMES
Experimental: Studies were undertaken to identify the possible biological target(s) of compound 69. The activation in neurons of PK such as PKCγ, ERK or p38 MAPK can contribute to pain hypersensitivity. Therefore, it was decided to screen compound 69 toward a panel of 50 PKs that provide a representative sampling of the human kinome (FIG. 3, Table 3) (Biochem. J. 2007, 408, 297-315). In this panel, p38α MAPK was identified as the privileged target, with 19% of kinase residual activity at 10 μM compound concentration.
The selectivity of compound 69 was evaluated at 1 μM toward another panel containing all four p38 MAPK isoforms, ERK1, ERK2 as well as other protein kinases close to p38α MAPK in the kinome phylogenetic tree (FIG. 4, Table 4). […] Its IC50 toward p38α MAPK was determined, showing a value in the micromolar range (IC50=3.0±0.1 μM).

| Compound | IC50 (p38α MAPK) | prevention of inflammatory MA (allodynic score, 6-g von Frey filament) [1] |
| --- | --- | --- |
| O=c1[nH]cc(Nc2ccccc2)cc1-c1ccncc1 [Compound 21, 5-(Phenylamino)-[3,4′-bipyridin]-2(1H)-one] | – | comparable gains of activity |
| O=c1[nH]cc(Nc2ccccc2)cc1-c1cccc2cccnc12 [Compound 23, 5-(Phenylamino)-3-(quinolin-8-yl)pyridin-2(1H)-one] | – | prevented the development of inflammatory MA |
| O=c1[nH]cc(Nc2ccccc2)cc1-c1cncnc1 [Compound 24, 5-(Phenylamino)-3-(pyrimidin-5-yl)pyridin-2(1H)-one] | – | prevented the development of inflammatory MA |
| CCOC(=O)c1ccccc1-c1cc(Nc2ccccc2)c[nH]c1=O [Compound 70, Ethyl 2-(2-oxo-5-(phenylamino)-1,2-dihydropyridin-3-yl)benzoate] | – | high activities |
| O=c1[nH]cc(Nc2ccccc2)cc1-c1ccccc1[N+](=O)[O-] [Compound 72, 3-(2-Nitrophenyl)-5-(phenylamino)pyridin-2(1H)-one] | – | prevented the development of inflammatory MA |
| CC(=O)c1cccc(-c2cc(Nc3ccccc3)c[nH]c2=O)c1 [Compound 75, 3-(3-Acetylphenyl)-5-(phenylamino)pyridin-2(1H)-one] | – | prevented the development of inflammatory MA |
| Cc1ccc(-c2cc(Nc3ccccc3)c[nH]c2=O)cc1 [Compound 77, 5-(Phenylamino)-3-(p-tolyl)pyridin-2(1H)-one] | – | prevented the development of inflammatory MA; also recorded: comparable gains of activity |
| O=c1[nH]cc(Nc2ccccc2)cc1-c1ccc(OC(F)(F)F)cc1 [Compound 79, 5-(Phenylamino)-3-(4-(trifluoromethoxy)phenyl)pyridin-2(1H)-one] | – | prevented the development of inflammatory MA |
| NC(=O)c1ccc(-c2cc(Nc3ccccc3)c[nH]c2=O)cc1 [Compound 81, 4-(2-Oxo-5-(phenylamino)-1,2-dihydropyridin-3-yl)benzamide] | – | prevented the development of inflammatory MA |
| O=c1[nH]cc(Nc2ccccc2)cc1-c1ccc(F)cc1F [Compound 82, 3-(2,4-Difluorophenyl)-5-(phenylamino)pyridin-2(1H)-one] | – | prevented the development of inflammatory MA |
| O=c1[nH]cc(Nc2ccccc2F)cc1-c1cccc2[nH]ccc12 [Compound 118, 5-((2-Fluorophenyl)amino)-3-(1H-indol-4-yl)pyridin-2(1H)-one] | 0.23 µM | – |
| O=c1[nH]cc(Nc2cccc(F)c2)cc1-c1cccc2[nH]ccc12 [Compound 119, 5-((3-Fluorophenyl)amino)-3-(1H-indol-4-yl)pyridin-2(1H)-one] | 1.42 µM | – |
| O=c1[nH]cc(Nc2ccc(F)cc2)cc1-c1cccc2[nH]ccc12 [Compound 120, 5-((4-Fluorophenyl)amino)-3-(1H-indol-4-yl)pyridin-2(1H)-one] | 0.43 µM | – |
| COc1ccccc1Nc1c[nH]c(=O)c(-c2cccc3[nH]ccc23)c1 [Compound 121, 3-(1H-Indol-4-yl)-5-((2-methoxyphenyl)amino)pyridin-2(1H)-one] | 5.25 µM | – |

Now from value to compound, other results behind:

| IC50 (p38α MAPK) | Compound | prevention of inflammatory MA (allodynic score, 6-g von Frey filament) [1] |
| --- | --- | --- |
| 5.53 µM | COc1cccc(Nc2c[nH]c(=O)c(-c3cccc4[nH]ccc34)c2)c1 [Compound 122, 3-(1H-Indol-4-yl)-5-((3-methoxyphenyl)amino)pyridin-2(1H)-one] | – |
| 3.67 µM | COc1ccc(Nc2c[nH]c(=O)c(-c3cccc4[nH]ccc34)c2)cc1 [Compound 123, 3-(1H-Indol-4-yl)-5-((4-methoxyphenyl)amino)pyridin-2(1H)-one] | – |
| 1.06 µM | Cc1ccccc1Nc1c[nH]c(=O)c(-c2cccc3[nH]ccc23)c1 [Compound 130, 3-(1H-Indol-4-yl)-5-(o-tolylamino)pyridin-2(1H)-one] | – |
| 1.04 µM | O=c1[nH]cc(Nc2cccc(O)c2)cc1-c1cccc2[nH]ccc12 [Compound 134, 5-((3-hydroxyphenyl)amino)-3-(1H-indol-4-yl)pyridin-2(1H)-one] | – |
| 2.72 µM | O=c1[nH]cc(Nc2ccccc2Br)cc1-c1cccc2[nH]ccc12 [Compound 141, 5-((2-Bromophenyl)amino)-3-(1H-indol-4-yl)pyridin-2(1H)-one] | – |
| 0.66 µM | O=c1[nH]cc(Nc2cccc(Br)c2)cc1-c1cccc2[nH]ccc12 [Compound 142, 5-((3-Bromophenyl)amino)-3-(1H-indol-4-yl)pyridin-2(1H)-one] | – |
| 2.35 µM | O=c1[nH]cc(Nc2ccc(Br)cc2)cc1-c1cccc2[nH]ccc12 [Compound 143, 5-((4-Bromophenyl)amino)-3-(1H-indol-4-yl)pyridin-2(1H)-one] | – |

Source: patent US12351556B2, “Pyridin-2(1H)one derivatives, their preparation and their use for the treatment of pain” (INSTITUT NATIONAL DE LA SANTE ET DE LA RECHERCHE MEDICALE …, priority 2019, dated 2025)
